One may read the IC50 as the point on the concentration scale where inhibition reaches its midpoint. A higher IC50 goes with weaker potency in that assay. A word on the EC50: it is the concentration needed to bring the measured effect to its halfway point.

The text below walks through data of article PMC9951290, “Comprehensive Structure–Activity Relationship Studies of Cepafungin Enabled by Biocatalytic C–H Oxidations” (ACS Central Science, 2023).

In assay [1] the target is T1, proteasome subunit β5 (Homo sapiens, UniProt P28074).
T1 construct: Following incubation of the compounds in cell culture for 6 h, cells were lysed; endogenous in cells; host or cells: RPMI 8226 (human multiple myeloma)
The assay can be described thus: In situ β5 proteasome activity assay (Suc-LLVY-AMC) in RPMI 8226 cells. The assay is classed as cell-based. To be noted: RPMI 8226 cells. The text has this: A preliminary series of analogues, including the natural product glidobactin A (2), were synthesized by largely the same route (Scheme 2B, Figure 2).[36] Desoxycepafungin (38) was synthesized from Boc-Lys(Boc)-OH by peptide couplings/macrocyclization to assess the role of the macrocycle hydroxylation in 1 toward proteasome inhibition. The saturated cepafungin analogue 39 was designed to address the possible role of rigidity in the tail fragment induced by the diene seen in many natural cepafungins and glidobactins. An analogue bearing unsaturation at its macrocyclic lysine was envisioned to provide a head-to-head comparison between the cepafungin and syringolin macrocyclic core. […] Proteasome subunit β5 IC50 values were determined in situ in RPMI 8226 cells. In close agreement with prior measurement of β5 IC50 for natural 1 and 2 in purified yeast proteasome,[12] in our hands the additional branching methyl in 1 indeed leads to ca. 5-fold improved IC50 compared to 2 in RPMI 8226 cells. […] Likewise, saturation of the fatty acid fragment in 39 causes ca. 14-fold decrease in β5 inhibition. This preliminary series of analogues highlighted that the macrocyclic hydroxylation, fatty acid unsaturation, and terminal lipid functionality are critical for potent proteasome inhibitory activity.
Cellular assays were performed on human multiple myeloma RPMI 8226 cells (Figure 4). First, relative inhibition of proteasome subunits β5 and β2 for all analogues and the natural product was measured at 30 nM compound concentration. Following incubation of the compounds in cell culture for 6 h, cells were lysed, and fluorogenic subunit-specific peptide substrates Suc-LLVY-AMC (β5) or Ac-RLR-AMC (β2) were incubated with the lysates; fluorescence readings provided relative proteasome activity levels in comparison with DMSO (Figure 4A). Next, cytotoxicity screening was performed at 30 and 100 nM concentrations for sufficient coverage of dynamic range (Figure 4B). […] Therefore, the improved cytotoxicity of phenyl cepafungin 50 likely results from a more pronounced loss of β5 function in RPMI 8226 cells. This drastic increase in proteasome inhibition may be due to π-stacking of the lipid tail phenyl ring with the β6 subunit residues Tyr106 and/or Tyr5. The β2 subunit-bound natural product has residues Tyr102 and Phe103 on the adjacent β3 subunit oriented further away from the terminal lipid methyl groups, and presumably would not facilitate π-stacking to the extent possible at the adjacent β6 subunit (see Figure 3 and Figure S4). […] These combined modifications were made in hopes that the effects of both substitutions would be additive. […] The presence of a Thr residue next to the cepafungin macrocycle appears to be favored over the ethyl side chain of desoxy-Thr analogue 44 as indicated by cytotoxicity and hydrogen-bonding seen in the cepafungin-bound crystal structure (Figures 3 and 4B). […]
Mammalian cell culture and lysate preparation
Mammalian cells were maintained in RPMI-1640 media. All media were supplemented with 10% fetal bovine serum (FBS, Life Technologies Cat# 10437028), non-essential amino acids (Sigma-Aldrich Cat# M7145) and penicillin/streptomycin (Sigma-Aldrich Cat# P4333). Cells were grown at 37 °C under 5% CO2 atmosphere. […] Cells were lysed by needle sonication to obtain cell lysates and protein concentration was determined using the […]
fluorescence was read at A360ex/A460em. […]

Assay [2] deals with RPMI 8226 cells. Put plainly: Cytotoxicity measurement (WST-1), RPMI 8226. The assay is classed as cell-based, human. The note with it: Homo sapiens; RPMI 8226, 48 hours, WST-1, n = 3; read-out: Cytotoxicity EC50 (cell viability). As for the experimental part: Cellular assays were performed on human multiple myeloma RPMI 8226 cells (Figure 4). First, relative inhibition of proteasome subunits β5 and β2 for all analogues and the natural product was measured at 30 nM compound concentration. Following incubation of the compounds in cell culture for 6 h, cells were lysed, and fluorogenic subunit-specific peptide substrates Suc-LLVY-AMC (β5) or Ac-RLR-AMC (β2) were incubated with the lysates; fluorescence readings provided relative proteasome activity levels in comparison with DMSO (Figure 4A). Next, cytotoxicity screening was performed at 30 and 100 nM concentrations for sufficient coverage of dynamic range (Figure 4B). […] Therefore, the improved cytotoxicity of phenyl cepafungin 50 likely results from a more pronounced loss of β5 function in RPMI 8226 cells. This drastic increase in proteasome inhibition may be due to π-stacking of the lipid tail phenyl ring with the β6 subunit residues Tyr106 and/or Tyr5. The β2 subunit-bound natural product has residues Tyr102 and Phe103 on the adjacent β3 subunit oriented further away from the terminal lipid methyl groups, and presumably would not facilitate π-stacking to the extent possible at the adjacent β6 subunit (see Figure 3 and Figure S4). […] These combined modifications were made in hopes that the effects of both substitutions would be additive. […] The presence of a Thr residue next to the cepafungin macrocycle appears to be favored over the ethyl side chain of desoxy-Thr analogue 44 as indicated by cytotoxicity and hydrogen-bonding seen in the cepafungin-bound crystal structure (Figures 3 and 4B).
AMC (β5) or Ac-RLR-AMC (β2). […]
Cytotoxicity Measurements
in DMSO) or DMSO and cultured for 48 hours. Toxicity was determined using the WST-1 assay
(Roche) according to the protocol of the manufacturer. (n = 3)
Figure S1. […]
On the technique in general: Tetrazolium dyes change colour on reduction, which living cells bring about.

Assay [3] has as its system RPMI 8226 cells. To be noted: ∼3700 proteins quantified, 19 in common; cited from earlier work.
Assay [4] concerns β5-subunit. The note with it: purified yeast proteasome; cited from earlier work.

For `CC(C)CCCCCC=CC=CC(=O)NC(C(=O)NC1CC(O)CCNC(=O)C=CC(C)NC1=O)C(C)O` (stereo not drawn) [compound 1, cepafungin I], in assay [1], the “fold improved β5 IC50 of 1 compared to 2” value is listed as “ca. 5 fold” and the “fold improved β5 inhibition of 1 compared to 38” value is “ca. 11 fold”. Further, in assay [1] (6 h, Suc-LLVY-AMC, n = 3, Figure 4D), 28 nM corresponded to half-maximal inhibition (IC50). The EC50 in assay [2] stood at 14 nM. The “number of proteins upregulated compared to DMSO control” value in assay [3] is on record as 88 proteins. Moreover, the “fold improvement of β5-subunit inhibition compared to glidobactin A (2)” value in assay [4] is “ca. 5 fold”.
